Patent publication US20260191793A1, “HBV SPECIFIC EXOSOMES AND USES THEREOF” (priority 2022, published 2026)

Key:
[1] = tested on: HBV replication in HepG2/2.2.15 cells; experiment: Antiviral efficiency of synthetic gRNA/Cas9 RNPs in HepG2/2.2.15 cells (HBsAg/HBeAg ELISA, HBV mRNA and HBV DNA real-time PCR); format: cell-based, Hepatitis B virus (HBV); design: reduction in HBsAg expression / reduction of HBV mRNA expression: concentration or dose not given beside the values; details: for reduction of HBV mRNA expression: HepG2/2.2.15 cells, real-time PCR, vs gRNAc; for reduction in HBsAg expression: HepG2/2.2.15 supernatant, 3 days after nucleofection, ELISA, vs scrambled gRNAc; for antiviral efficacy among the 9 gRNAs tested: HepG2.2.15 cells
Method: The HepG2.2.15 Human Hepatoblastoma cell line (Cat #SCC249, MilliporeSigma, Burlington, MA) is a traditional HBV cellular model that is widely used for studying HBV infection and drug development. HepG2.2.15 cells display constitutive HBV RNA transcription and DNA replication, but a lesser detection of cccDNA by Southern blot and PCR detection. The HepG2/2.2.15 cells were cultured in DMEM (Cat #MT10013CV, Fisher Scientific, Waltham, MA) supplemented with 10% Fetal bovine serum, penicillin, and streptomycin (50 ug/ml each; Fisher Scientific) and maintained at 37° C. and 5% CO2 atmosphere. The Amaxa Cell Line Nucleofector Kit V (Lonza VCA-1003) was used to deliver gRNA/Cas9 into HepG2/2.2.15 cells stably expressing HBV. For each transfection, 160 μM gRNA and 160 μM tracrRNA were first incubated at 37° C. for 30 minutes, followed by adding 80 μM Cas9 protein and incubating at 37° C. for 15 minutes. Approximately 40 μM of the gRNA/Cas9 complex was transfected into HepG2/2.2.15 cells (5×10^5) following the manufacturer's instructions. After 72 hours, the culture supernatants were harvested to measure HBV antigens by ELISA, and the cell pellets were used to determine HBV DNA or mRNA levels by real-time-PCR.
The levels of HBsAg and HBeAg in the supernatants of cell cultures were determined by ELISA (Cat #KA0286 and NBP2-600029, Novus Biologicals, Littleton, CO) according to the manufacturer's protocol. The optical density of antigen levels was measured at 450 nm using a microplate spectrophotometer. The samples were run in triplicate, and the experiments were repeated at least three times.
Total RNA was extracted from the cell pellets by the RNeasy Mini kit (Cat #74104, QIAGEN, Germantown, MD), and 1 μg RNA was converted to cDNA using the Applied Biosystems High-Capacity cDNA Reverse Transcription Kit (Cat #43-688-14, ThermoFisher, Waltham, MA). Quantitative real-time PCR (real-time-qPCR) was performed using iTaq Universal SYBR Green Supermix (Cat #1725124, Bio-Rad, Hercules, CA). The PCR primers were: HBV mRNA forward, 5′-[…]-3′ (SEQ ID NO: 52), reverse, 5′-[…]-3′ (SEQ ID NO: 53); HBV pgRNA forward 5′-[…]-3′ (SEQ ID NO: 54), reverse 5′-[…]-3′ (SEQ ID NO: 55); and GAPDH forward 5′-[…]-3′ (SEQ ID NO: 56), reverse 5′-[…]-3′ (SEQ ID NO: 57). The gene expression levels were determined by the […] method and values were normalized to GAPDH expression as an internal control.
Total and protein-free HBV DNAs were extracted from whole cell lysate using the Hirt DNA method according to a previously published protocol. For HBV cccDNA analysis, the protein-free DNA was treated with 10 units of T5 exonuclease (NEB) at 37° C. for 30 min, followed by 95° C. for 5 min, and diluted 4-fold with nuclease-free water. Next, the cccDNA was cleaned with a DNA clean and concentrator kit (ZYMO Research, Irvine, CA) and used for PCR. HBV total DNA and cccDNA were analyzed by real-time PCR using a TaqMan PCR assay. The primers and probe used to amplify HBV total DNA were: HBV total DNA forward: 5′-[…]-3′ (SEQ ID NO: 58), reverse 5′-[…]-3′ (SEQ ID NO: 59), and internal probe: 5′-FAM-[…]-TAMRA-3′ (SEQ ID NO: 60). The primers and probe used to amplify HBV cccDNA (Genotype D, subtype ayw) were: forward: 5′-[…]-3′ (SEQ ID NO: 61), reverse 5′-[…]-3′ (SEQ ID NO: 62), and internal probe 5′-FAM-[…]-TAMRA-3′ (SEQ ID NO: 63). The PCR reactions were performed in 20 μl volumes and contained 2 μl DNA. The PCR conditions were: 95° C. for 10 min, followed by 45 cycles of 95° C. for 15 s and 64° C. for 30 s. The DNA levels were determined by the […] method and values were normalized to the control group.
Because the hepatoma cell line HepG2/2.2.15 is a traditional HBV cellular model used to test the efficacy and cytotoxicity of anti-HBV drugs, the synthetic gRNA/Cas9 RNPs were tested for their antiviral efficiency in HepG2/2.2.15 cells. […]

HBV cccDNA = experiment: HBV-infected HepG2-NTCP cells incubated with exosomes packaged with gRNA/Cas9 RNPs, HBV cccDNA; format: cell-based, Hepatitis B virus (HBV); details: delivery by engineered exosomes, 3 days (1×10^8 particles packaged with 40 μM gRNA/Cas9 RNPs)
Method: HepG2-NTCP cells were infected for 6 days with the supernatants of HepDE19 cells. Next, HepG2-NTCP cells were transfected for 3 days with gRNA5, gRNA9, gRNA5+gRNA9, or gRNAc RNPs (FIG. 4A) or incubated with exosomes carrying gRNA5, gRNA9, gRNA5+gRNA9, or gRNAc RNPs (1×10^8 particles packaged with 40 μM gRNA/Cas9 RNPs) (FIG. 4B), followed by measuring HBV cccDNA.
To test whether the synthetic gRNA/Cas9 can reduce newly formed HBV cccDNA in HepG2-NTCP cells, the cells with HBV particle-containing supernatants from HepDE19 cells (supernatants harvested 6 days after culture in Tet-free media) were infected. The HepG2-NTCP cells were infected with HBV particles for 6 days and then transfected with gRNA5, gRNA9, gRNA5 plus gRNA9 (in combination), or gRNAc RNPs for 3 days, followed by measuring HBV cccDNA. In another experiment, the infected HepG2-NTCP cells were incubated for 3 days with exosomes packaged with gRNA5, gRNA9, gRNA5 plus gRNA9 (in combination), or gRNAc RNPs, followed by measuring HBV cccDNA.

For GGTCTCCATGCGACGTGCAGNGG [gRNA9], the “reduction of HBV mRNA expression” value [1] was ~ 50%, the “reduction in HBsAg expression” value [1] was 50% and the “antiviral efficacy among the 9 gRNAs tested” value [1] was “most specific and potent antiviral efficacy”. The “HBV cccDNA levels” value (HBV cccDNA) was “significantly reduced”.

“GTTATCGCTGGATGTGTCTGNGG (guide GUUAUCGCUGGAUGUGUCUGNGG; complexed with Cas9 protein, chemistry not fully specified) [gRNA5, tested as synthetic gRNA/Cas9 RNP]” was tested, and the “reduction of HBV mRNA expression” value [1] was ~ 50%, the “reduction in HBsAg expression” value [1] was 50% and the “antiviral efficacy among the 9 gRNAs tested” value [1] was “most specific and potent antiviral efficacy”. The “HBV cccDNA levels” value (HBV cccDNA) was “significantly reduced”.
